One data set has as its target T1, HsCdk2/Cyclin A (Homo sapiens, UniProt P24941).
T1 construct: made in house; host or cells: baculovirus/Sf9 cells
Put plainly: CDK2 kinase assay. The format is biochemical. How it is done: (§1) Values are IC50 expressed in µM and calculated from dose–response curves (each point on the curves was performed in triplicate). Selectivity indexes (SI; in brackets) are calculated as follows: SI = IC50 kinase X/IC50 Haspin. ND: not determined. *IC50 values obtained using the ADP-Glo methodology (see Experimental section, Supplementary Material). […]
(§2) A, HsCdk9/Cyclin T). Native SscCK1δ /ε and SscGSK3α/β were purified from pig brain whereas HsPlk1, HsCdk1 and HsAurora B were purchased from ProQinase and SignalChem respectively. Kinase assays were performed in […]
(§3) mCi/ml; PerkinElmer) in a final volume of 30 µl as previously reported 51. After 30 min incubation at 30°C, the reaction mix was spotted onto GE healthcare P81 phosphocellulose paper using a FilterMate Harvester (PerkinElmer), and the filter was extensively washed with a 1% phosphoric acid solution. The wet filter-bound radioactivity was determined in the presence of 20 µl scintillation fluid (GE healthcare) with a TopCount® Scintillation and Luminescence Counter (PerkinElmer). IC50 values were calculated from dose-response curves […]
(§4) Kinase activities using the ADP-Glo methodology (ADP-Glo Kinase Assay; Promega) were assayed according to the assay described in Nguyen et al. 52 and Ibrahim et al. 53. […]

The target of another data set is T2, HsCDK1 (Homo sapiens, UniProt P06493).
T2 construct: purchased ProQinase
Put plainly: CDK1 kinase assay. The format is biochemical. The protocol: We therefore tested our compounds on two obvious candidates, HsCDK1 and HsPLK1 (Polo-like_kinase 1) both required for mitotic entry[50]
(§5) Values are IC50 expressed in µM and calculated from dose–response curves (each point from the curves was performed in duplicate). NR: not relevant. […]
(§6) Recombinant protein kinases were expressed and purified from E. coli (HsHaspin kinase domain aa470-798, HsCdk5/p25, RnDYRK1A kinase domain aa1-499, HsPIM1, MmCLK1) or baculovirus/Sf9 cells (HsCdk2/Cyclin A, HsCdk9/Cyclin T). Native SscCK1δ /ε and SscGSK3α/β were purified from pig brain whereas HsPlk1, HsCdk1 and HsAurora B were purchased from ProQinase and SignalChem respectively. Kinase assays were performed in specific buffers and substrates for each kinase tested in the presence of 15 µM [γ-33P] ATP (3,000 Ci/mmol, 10 mCi/ml; PerkinElmer) in a final volume of 30 µl as previously reported 51. After 30 min incubation at 30°C, the reaction mix was spotted onto GE healthcare P81 phosphocellulose paper using a FilterMate Harvester (PerkinElmer), and the filter was extensively washed with a 1% phosphoric acid solution. The wet filter-bound radioactivity was determined in the presence of 20 µl scintillation fluid (GE healthcare) with a TopCount® Scintillation and Luminescence Counter (PerkinElmer). IC50 values were calculated from dose-response curves

The target of a further data set is T3, HsPLK1 (Homo sapiens, UniProt P53350).
T3 construct: purchased ProQinase
Put plainly: PLK1 kinase assay. The format is biochemical. The note with it: Table 4. How it is done:
. We therefore tested our compounds on two obvious candidates, HsCDK1 and HsPLK1 (Polo-like_kinase 1) both required for mitotic entry[50] (Table 4).
as §5, §6

Another data set deals with RPE-1. As to the kind of experiment: Cell viability, monolayer (2D), MTS assay. The format is cell-based. To be noted: Homo sapiens, 48 h. A general note: Tetrazolium dyes change colour on reduction, which living cells bring about.
For the next data set, the system named is U-2 OS. Put plainly: Cell viability, monolayer (2D), MTS assay. The format is cell-based. The note with it: Homo sapiens, U2OS, 48 h.
In a further data set the test system is SH-SY5Y. As to the kind of experiment: Cell viability, monolayer (2D), MTS assay. The format is cell-based. To be noted: Homo sapiens, 48 h.
A further data set relates to HCT116. Put plainly: Cell viability, monolayer (2D), MTS assay. The format is cell-based. To be noted: Homo sapiens, HCT-116, 48 h.
In a further data set the test system is HBL100. As to the kind of experiment: Cell viability, monolayer (2D), MTS assay. The format is cell-based. To be noted: Homo sapiens, HBL-100, 48 h.
Another data set has as its system U-2 OS spheroids. As to the kind of experiment: Spheroid (3D) viability, CellTiter-Glo. The format is cell-based, human. To be noted: Homo sapiens, U2OS. In general terms: ATP-based viability assays read luminescence as a measure of living cells.
The subject of a further data set is HCT116 spheroids. Put plainly: Spheroid (3D) viability, CellTiter-Glo. The format is cell-based, human. The note with it: 5 µM, Figure 4(A).
The subject of the next data set is HBL100 spheroids. Put plainly: Spheroid (3D) viability, CellTiter-Glo. The format is cell-based, human. The note with it: 5 µM, Figure 4(A).
The test system of data set [1] is Haspin activity (H3T3ph) in U-2 OS cells. As to the kind of experiment: In-cell Haspin activity, H3T3ph immunofluorescence. The format is cell-based, human. The note with it: 24 h; for H3T3ph signal remaining in prometaphase cells (% of ctrl): 0.5 µM; for inhibition at 0.05 µM: Homo sapiens, U2OS, read-out: inhibition of cellular Haspin activity.
For a further data set, the system named is HCT-116 cells xenografts. Details: method as in PMID 21804608. To be noted: nude mice xenografts of HCT-116 cells; cited from earlier work.
Another data set concerns melanoma cancer lines. Set-up: method as in PMID 28928884. To be noted: alone or in combination with Trametinib; cited from earlier work.
Data set [2] has as its system U-2 OS cells. As to the kind of experiment: Cell cycle analysis by flow cytometry (propidium iodide). To be noted: for cells in S phase (% of cell total population): DMSO control 51.9%.
Protocol: Figure 6. […] DNA content was measured by flow cytometry and representative profiles are shown. (B) quantification of the proportion of cells in each phase of the cell cycle from the experiment described in (A). Results are mean percentage (n = 3 independent experiments).
Cellular evaluation methods
All media were supplemented with 10% fetal calf serum (unless overwise specified) and 2 mM L-glutamine and cells were cultured
F68-pluronic acid. Cells were fixed for 2h in ice-cold ethanol, then washed twice in PBS containing 0.1% F68-pluronic acid, centrifuged at 200 g and resuspended in a PBS buffer containing 1% Triton, 100 µg/ml RNase A (Thermo Scientific) and 40 µg/ml propidium iodide (Life Technologies). DNA content was determined using a FACS Canto II (BD) and the data were analyzed using FCS Express Cytometry software (De Novo Software).
Twenty thousand events were collected in each run.
Another data set has as its target T4, HsHaspin (Homo sapiens, UniProt Q8TF76).
T4 construct: aa470-798; made in house; host or cells: E. coli
T4 sequence (Q8TF76 470-798): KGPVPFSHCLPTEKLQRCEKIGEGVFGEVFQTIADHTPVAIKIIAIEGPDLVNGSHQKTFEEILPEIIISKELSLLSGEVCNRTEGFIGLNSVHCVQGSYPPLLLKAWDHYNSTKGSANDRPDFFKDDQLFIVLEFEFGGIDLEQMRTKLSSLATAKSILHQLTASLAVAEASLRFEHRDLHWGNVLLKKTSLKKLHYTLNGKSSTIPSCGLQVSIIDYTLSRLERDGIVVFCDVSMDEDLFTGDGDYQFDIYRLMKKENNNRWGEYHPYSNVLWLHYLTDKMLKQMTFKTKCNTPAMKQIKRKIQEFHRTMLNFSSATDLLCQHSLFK
As to the kind of experiment: Recombinant Haspin kinase assay ([γ-33P]ATP, 15 µM ATP; some values ADP-Glo). The note with it: average selectivity index over the protein kinases tested vs Haspin. The format is biochemical. How it is done:
as §1, §2, §3, §4
(In ADP-Glo the light output rises with the ADP produced.)

The target in a further data set is T5, HsAurora B (Homo sapiens, UniProt Q96GD4).
T5 construct: purchased SignalChem
Put plainly: Aurora B kinase assay. The format is biochemical. How it is done: as §1
as §6, with “curves […]” for “curves”
as §4

A further data set concerns the target T6, Haspin (Homo sapiens, UniProt Q8TF76).
T6 construct: aa470-798; made in house; host or cells: E. coli
Put plainly: ATP competition assay on Haspin kinase activity. The format is biochemical. The protocol:
We first conducted an ATP competition assay with compound 12 on Haspin kinase activity (Figure 3(A)). We tested an ATP concentration range from 5 to 240 µM on compound 12 concentrations ranging from 0.001 to 10 µm.
Figure 3. Binding mode of selected compounds with Haspin. (A) ATP competition assay with compound 12. (B) Crystal structure of Haspin with compound 12. […] (C) Superimposition of the binding mode of compounds 12 (yellow carbon atoms) and 21 (grey carbon atoms) in Haspin active site. The three-letter amino acid code and residue number are labelled next to each side chain.

The subject of data set [3] is U-2 OS cells. Put plainly: Scratch wound cell migration assay (IncuCyte). The format is cell-based, human. To be noted: 0.6 µM, 0.5% FBS, normalised against DMSO control (100%).
Setting [4] is: 48 h, 2 days, Figure 4(B), read-out: U-2 OS spheroid remaining viability.

A word on the IC50: it is the midpoint of a concentration-inhibition curve. What is called EC50 is the midpoint of the concentration-response curve. As a reminder, the viability is a per cent measure of how many cells are alive, often set against a control. A word on the inhibition: it is how much of the control response was suppressed.

Each structure is given as a SMILES string. Like-named read-outs stand apart in the source and are kept apart here.

T2 sequence (P06493 whole entry): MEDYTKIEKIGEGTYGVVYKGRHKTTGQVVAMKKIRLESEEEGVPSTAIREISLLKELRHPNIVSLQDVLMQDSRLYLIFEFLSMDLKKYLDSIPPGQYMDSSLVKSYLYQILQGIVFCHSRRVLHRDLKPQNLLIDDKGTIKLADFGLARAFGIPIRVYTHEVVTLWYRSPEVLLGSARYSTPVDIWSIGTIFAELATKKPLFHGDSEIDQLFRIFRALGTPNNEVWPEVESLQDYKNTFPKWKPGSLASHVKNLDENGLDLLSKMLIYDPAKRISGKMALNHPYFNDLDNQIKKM
T2 sequence (P14635 whole entry partner): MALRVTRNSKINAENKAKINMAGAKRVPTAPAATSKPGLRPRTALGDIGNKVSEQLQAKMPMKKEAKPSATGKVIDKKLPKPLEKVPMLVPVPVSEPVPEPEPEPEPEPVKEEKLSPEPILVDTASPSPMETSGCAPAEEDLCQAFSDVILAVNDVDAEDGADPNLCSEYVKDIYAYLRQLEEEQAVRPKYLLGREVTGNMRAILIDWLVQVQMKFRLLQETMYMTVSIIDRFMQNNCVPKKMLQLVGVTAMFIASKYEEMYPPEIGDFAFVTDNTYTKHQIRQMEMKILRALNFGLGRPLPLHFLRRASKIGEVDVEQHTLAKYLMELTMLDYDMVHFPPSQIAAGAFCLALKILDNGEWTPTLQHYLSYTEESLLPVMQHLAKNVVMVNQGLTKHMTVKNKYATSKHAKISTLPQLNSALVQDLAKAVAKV
T3 sequence (P53350 whole entry): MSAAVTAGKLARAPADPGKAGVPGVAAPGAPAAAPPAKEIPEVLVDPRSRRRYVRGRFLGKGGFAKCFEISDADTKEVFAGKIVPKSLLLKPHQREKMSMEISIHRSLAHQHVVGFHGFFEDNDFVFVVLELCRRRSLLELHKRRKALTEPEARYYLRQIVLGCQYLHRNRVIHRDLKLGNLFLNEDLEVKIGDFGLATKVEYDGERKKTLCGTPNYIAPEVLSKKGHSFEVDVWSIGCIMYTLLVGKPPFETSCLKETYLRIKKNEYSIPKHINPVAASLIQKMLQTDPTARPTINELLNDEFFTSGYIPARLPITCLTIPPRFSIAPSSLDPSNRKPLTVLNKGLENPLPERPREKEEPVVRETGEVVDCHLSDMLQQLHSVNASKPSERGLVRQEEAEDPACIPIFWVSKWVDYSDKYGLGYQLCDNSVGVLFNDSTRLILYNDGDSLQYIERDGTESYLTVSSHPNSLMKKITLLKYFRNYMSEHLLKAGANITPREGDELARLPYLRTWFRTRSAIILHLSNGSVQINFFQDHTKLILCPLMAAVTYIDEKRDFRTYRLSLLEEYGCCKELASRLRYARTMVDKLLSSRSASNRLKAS
T5 sequence (Q96GD4 whole entry): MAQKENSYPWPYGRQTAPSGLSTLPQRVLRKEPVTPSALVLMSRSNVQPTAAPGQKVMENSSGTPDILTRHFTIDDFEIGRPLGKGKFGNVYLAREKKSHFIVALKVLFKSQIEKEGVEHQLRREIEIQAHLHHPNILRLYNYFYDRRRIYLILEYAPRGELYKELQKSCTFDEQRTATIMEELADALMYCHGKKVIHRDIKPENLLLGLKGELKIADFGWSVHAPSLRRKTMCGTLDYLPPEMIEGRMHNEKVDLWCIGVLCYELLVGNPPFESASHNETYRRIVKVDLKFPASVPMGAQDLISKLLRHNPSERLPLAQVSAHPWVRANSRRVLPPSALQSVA

`CCCNc1ccc2ncc(-c3ccc4[nH]ncc4c3)n2n1` [Compound 5, reference compound]: the IC50 is 0.091 µM against HsCdk2/Cyclin A, 0.029 µM at HsCDK1 and more than 10 µM at HsPLK1. Further, the EC50 is 3.8 µM in the data set on RPE-1; 5.1 µM in the data set with U-2 OS; more than 10 µM with SH-SY5Y; 9 µM in the data set with HCT116; more than 10 µM with HBL100. Moreover, the viability at 5 µM with U-2 OS spheroids (setting [4]) was 9.7%; in the data set on U-2 OS spheroids (240 h, 10 days, Figure 4(A), read-out: U-2 OS spheroid viability (% of DMSO control)) it was 1%; in the data set with U-2 OS spheroids (48 h, Figure 4(A), read-out: U-2 OS spheroid viability (% of DMSO control)), 49%. Moreover, the results for the HCT116 spheroid viability result in the data set with HCT116 spheroids (48 h) and in the data set with HCT116 spheroids (10 days) were “without any significant effect” and “remained mostly unresponsive”, respectively. For the same molecule, the “HBL-100 spheroid viability (% of DMSO control)” value in the data set with HBL100 spheroids (48 h) is on record as “without any significant effect”. In the data set on HBL100 spheroids (10 days), the HBL100 spheroid viability result is recorded as “remained mostly unresponsive”. In addition, the “H3T3ph signal remaining in prometaphase cells (% of ctrl)” value in data set [1] is reported as 2.5%. The inhibition at 0.05 µM in data set [1] was more than 80%. Moreover, the “effect on angiogenesis and tumour growth” value with HCT-116 cells xenografts was “reduced angiogenesis and tumour growth”. The “effect on cell viability and mobility of melanoma lines” value in the data set with melanoma cancer lines is “affects also cell viability and mobility of several melanoma cancer lines”. Moreover, the “cells in S phase (% of cell total population)” value in the data set on U-2 OS cells [2] (2.5 µM, 24 h, U-2 OS) amounted to 30.9%. Also, the “cell cycle effect (in words)” value in the data set with U-2 OS cells [2] (Figure 2) is reported as “Cell cycle arrest in G2/M”.

Turning to `CC[C@H](CO)Nc1ccc2ncc(-c3ccc4[nH]ncc4c3)n2n1` [Compound 12], the “average SI” value at HsHaspin amounted to 24.2. Moreover, the “Aurora B inhibition (in words)” value on HsAurora B is “did not inhibit Aurora B kinase”. The half-maximal inhibitory concentration (IC50) was 0.11 µM on HsCdk2/Cyclin A (read-out: IC50 CDK2); 0.052 µM at HsCDK1 (Table 4, read-out: IC50 HsCDK1); more than 10 µM against HsPLK1; 0.006 µM at Haspin (5 µM ATP, read-out: IC50 Haspin at 5 µM ATP); 0.95 µM at Haspin (240 µM ATP, read-out: IC50 Haspin at 240 µM ATP). For the same molecule, on HsCDK1 (SI = IC50 CDK1/IC50 Haspin), the “SI CDK1/Haspin” value is listed as 0.8. Moreover, the EC50 is 6.8 µM in the data set with RPE-1; more than 10 µM in the data set on U-2 OS; more than 10 µM in the data set on SH-SY5Y; more than 10 µM in the data set on HCT116; 6.6 µM in the data set with HBL100. For the same molecule, in the data set with U-2 OS spheroids (setting [4]), the viability at 5 µM stood at 13.1%. In addition, the viability at 1 µM in the data set with U-2 OS spheroids (240 h, 1 µM, 10 days, Figure 4(B), read-out: U-2 OS spheroid remaining viability) was found to be 66%. Besides, the viability at 2.5 µM in the data set with U-2 OS spheroids (240 h, 2.5 µM, 10 days, Figure 4(B), read-out: U-2 OS spheroid remaining viability) came to 50%. Besides, the “H3T3ph signal remaining in prometaphase cells (% of ctrl)” value in data set [1] was 1.9%. Further, the inhibition at 0.05 µM in data set [1] was more than 80%. Also, the “normalised wound closure after 24 h” value in the data set on U-2 OS cells [3] was 88%. Moreover, in the data set with U-2 OS cells [2] (2.5 µM, 24 h, U-2 OS, DMSO control 12.8%), the “cells in G2/M phase (% of cell total population)” value was 29.9%. For the same molecule, in the data set with U-2 OS cells [2] (2.5 µM, 24 h, U-2 OS), the “cells in S phase (% of cell total population)” value was determined as 34.4%.

Source of the values: publication PMC7580722, “Design of new disubstituted imidazo[1,2-b]pyridazine derivatives as selective Haspin inhibitors. Synthesis, binding mode and anticancer biological evaluation” (Journal of Enzyme Inhibition and Medicinal Chemistry, 2020).
